Test results from patent publication US12171229B2, “Heteroaryl-triazole and heteroaryl-tetrazole compounds as pesticides” (BAYER AKTIENGESELLSCHAFT, priority 2018, dated 2024).

Columns and labels:
Type in all cases: in vivo
Myzus persicae [1] = assay: Myzus persicae oral test; details: 120 h, 4 ppm, after 5 days
Procedure, shortened: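 Aphid mortality (%) was recorded 5 days after a mixed Myzus persicae population began sucking, through parafilm, on compound solutions (acetone stock diluted with water) combined with sugar-supplemented IPL41 medium.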

Ctenocephalides felis [2] = assay: Ctenocephalides felis oral test; details: 48 h, 100 ppm in cattle blood, after 2 days, adult unfed cat fleas
Procedure, shortened: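 Compound dissolved in DMSO and diluted in cattle blood to test concentration, offered to ~20 unfed adult fleas via a parafilm-sealed blood chamber held at 37° C (fleas at room temperature). Kill recorded at 2 days as % mortality.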

Myzus persicae [3] = assay: Myzus persicae spray test; details: foliar, 120 h, after 5 days, Chinese cabbage leaf disks
Procedure, shortened: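 Percent kill was recorded 5 days after spraying. Test solutions, prepared with solvent and diluted in 1000 ppm emulsifier water, were applied to Brassica pekinensis leaf disks carrying mixed-instar green peach aphids.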

Diabrotica balteata = Diabrotica balteata spray test; details: Diabrotica balteata, in Triticum aestivum, 168 h, after 7 days, larvae on wheat seeds, read-out: efficacy (seedlings grown up); for pest or weed control at 80 µg/disc, 250 g/ha: 80 μg/well (=250 g/ha); for pest or weed control at 160 µg/disc, 500 g/ha: 160 μg/well (=500 g/ha)
Procedure, shortened: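 Scoring at 7 days compares seedling growth with untreated, uninfested controls (100% = equal growth, 0% = none grown). Wheat seedlings germinated 1 day on agar, 5 per well, received a spray of test solution made in 1000 ppm emulsifier water. Each unit then received 10–20 beetle larvae.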

[4] = system: Culex quinquefasciatus strain P00; assay: Culex quinquefasciatus test (CULXFA surface treatment & contact assay); details: 24 hours after contact, read-out: efficacy (mortality); for mortality at 20 mg/m2: surface concentration 20 mg/m^2, exposure 30 minutes
Method: Culex Quinquefasciatus Test (CULXFA Surface Treatment & Contact Assay)
(§1) Solvent: Aceton+2000 ppm rapeseed oil methyl ester (RME)
(§2) In order to produce a sufficient, active ingredient containing solution it is necessary to solve the test compound in the solvent-mix (acetone at 2 mg/ml/RME 2000 ppm). This solution is pipetted onto a glazed tile and after evaporation of the acetone, adult mosquitoes of the species Culex quinquefasciatus strain P00 are placed onto the dried surface. The exposure time is 30 minutes.
(§3) Mortality in percent (%) is determined 24 hours after contact of the insects to the treated surface. 100% mortality means that all tested insects are dead, whereas 0% means that no insect died.

Boophilus microplus = Boophilus microplus injection test; details: Rhipicephalus microplus, 168 h; 20 μg/animal injected into the abdomen; adult engorged female ticks; egg deposition after 7 days; read-out: efficacy (infertile eggs)
Procedure, shortened: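 Efficacy, from 0% (all eggs fertile) to 100% (all infertile), was scored on eggs laid by five engorged adult females. Each female was injected intra-abdominally with 1 μl of compound solution in DMSO. Fertile egg laying was checked at 7 days, with uncertain eggs kept until hatching at about 42 days.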

[5] = system: Anopheles funestus strain FUMOZ-R; assay: Anopheles funestus test (ANPHFU surface treatment & contact assay); details: 24 hours after contact, read-out: efficacy (mortality); for mortality at 20 mg/m2: surface concentration 20 mg/m^2, exposure 30 minutes; for mortality at 4 mg/m2: surface concentration 4 mg/m^2, exposure 30 minutes
Method: Anopheles funestus Test (ANPHFU Surface Treatment & Contact Assay)
as §1
as §2, with “Anopheles funestus” for “Culex quinquefasciatus”, “FUMOZ-R (Hunt et al., Med. Vet. Entomol. 2005 September; 19(3): 271-275)” for “P00”
as §3

Nezara viridula = Nezara viridula spray test; details: 96 h, after 4 days, larvae on barley plants
Procedure, shortened: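 Mortality (%) was assessed at day 4, from 0% (no bugs dead) to 100% (all dead). The spray solution was compound diluted to test concentration in water with 1000 ppm emulsifier and applied to barley carrying southern green stink bug larvae.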

Ctenocephalides felis [6] = assay: Ctenocephalides felis in-vitro contact test, adult cat flea; details: 5 μg/cm^2 (=500 g/ha), after 48 hours, adult cat fleas, read-out: efficacy (fleas dead or moribund)
Method: Ctenocephalides Felis—In-Vitro Contact Tests Adult Cat Flea 9 mg compound is solved in 1 ml acetone and diluted with acetone to the desired concentration. 250 μl of the test solution is filled in 25 ml glass test tubes and homogeneously distributed on the inner walls by rotation and tilting on a shaking device (2 h at 30 rpm). With a compound concentration of 900 ppm, an inner surface of 44.7 cm^2 and a homogeneous distribution, a dose of 5 μg/cm^2 is achieved. After the solvent has evaporated, each test tube is filled with 5-10 adult cat fleas (Ctenocephalides felis), closed with a perforated lid and incubated in a lying position at room temperature and relative humidity. After 48 hours efficacy is determined. The fleas are patted on the ground of the tubes and are incubated on a heating plate at 45-50° C. for at most 5 minutes. Immotile or uncoordinated moving fleas, which are not able to escape the heat by climbing upwards, are marked as dead or moribund. […] An efficacy of 100% means all fleas are dead or moribund; 0% means no fleas are dead or moribund.

Nilaparvata lugens = Nilaparvata lugens spray test; details: 336 h, after 14 days, rice plants
Method: Nilaparvata lugens—Spray Test
To produce a suitable preparation of active compound, 1 part by weight of active compound is mixed with the stated amount of solvents and is diluted with water, containing an emulsifier concentration of 1000 ppm, to the desired concentration. Further test concentrations are prepared by dilution with emulsifier containing water.
Rice plants (Oryza sativa) are sprayed with a preparation of the active ingredient of the desired concentration and the plants are infested with the brown planthopper (Nilaparvata lugens).
After 14 days mortality in % is determined. 100% means all planthoppers have been killed and 0% means none of the planthoppers have been killed.

Spodoptera frugiperda = Spodoptera frugiperda spray test; details: 168 h, after 7 days, larvae on maize leaf sections
Procedure, shortened: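 Leaf-spray assay on maize: sections treated with active ingredient at the desired concentration in emulsifier-containing water (1000 ppm) and, once dry, exposed to armyworm caterpillars. Kill rate is expressed in percent after seven days.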

[7] = system: Aedes aegypti strain MONHEIM; assay: Aedes aegypti test (AEDSAE surface treatment & contact assay); details: 24 hours after contact, read-out: efficacy (mortality); for mortality at 20 mg/m2: surface concentration 20 mg/m^2, exposure 30 minutes; for mortality at 4 mg/m2: surface concentration 4 mg/m^2, exposure 30 minutes
Method: Aedes Aegypti Test (AEDSAE Surface Treatment & Contact Assay)
as §1
as §2, with “Aedes aegypti” for “Culex quinquefasciatus”, “MONHEIM” for “P00”
as §3

Structure (SMILES)	mortality at 4 ppm (Myzus persicae [1]) [%]	mortality at 100 ppm (Ctenocephalides felis [2]) [%]	mortality at 100 g/ha (Myzus persicae [3]) [%]	pest or weed control at 80 µg/disc, 250 g/ha (Diabrotica balteata) [%]	pest or weed control at 160 µg/disc, 500 g/ha (Diabrotica balteata) [%]	mortality at 20 mg/m2 [4] [%]	pest or weed control at 0.02 mg (Boophilus microplus) [%]	mortality at 20 mg/m2 [5] [%]	mortality at 100 g/ha (Nezara viridula) [%]	mortality at 500 g/ha (Nezara viridula) [%]	pest or weed control at 5 µg/cm2 (Ctenocephalides felis [6]) [%]	mortality at 500 g/ha (Nilaparvata lugens) [%]	mortality at 100 g/ha (Spodoptera frugiperda) [%]	mortality at 500 g/ha (Spodoptera frugiperda) [%]	mortality at 20 mg/m2 [7] [%]	mortality at 4 mg/m2 [5] [%]	mortality at 4 mg/m2 [7] [%]	mortality at 500 g/ha (Myzus persicae [3]) [%]	mortality at 4 mg/m2 ([4]; surface concentration 4 mg/m^2, exposure 30 minutes) [%]
C[C@H](NC(=O)c1cc(Cl)cc(C(F)(F)F)c1)c1ncnn1C1CCS(=O)(=O)C1 (single isomer, unassigned) [Example I-024]	100	100	90	100	100	90 to 100	100	90 to 100											
CC(NC(=S)c1cc(Cl)cc(C(F)(F)F)c1)c1ncnn1-c1ccc(C#N)cn1 (stereo in doubt) [Example I-080, 3-chloro-N-{(1R)-1-[1-(5-cyanopyridin-2-yl)-1H-1,2,4-triazol-5-yl]ethyl}-5-(trifluoromethyl)benzenecarbothioamide]		100		100	80		100		100	100	100	100	100	100					
C[C@H](NC(=O)c1cc(Cl)cc(C(F)(F)F)c1)c1ncnn1-c1ccc(SC(F)(F)F)cn1 [Example I-026, 3-chloro-5-(trifluoromethyl)-N-[(1S)-1-(1-{5-[(trifluoromethyl)sulfanyl]pyridin-2-yl}-1H-1,2,4-triazol-5-yl)ethyl]benzamide]		100		100	100	90 to 100	100	90 to 100					100	100	90 to 100	85 to 100			
C[C@H](NC(=O)c1cc(Cl)cc(C(F)(F)F)c1)c1ncnn1-c1ccc(N)cn1 [Example I-030, N-{(1S)-1-[1-(5-aminopyridin-2-yl)-1H-1,2,4-triazol-5-yl]ethyl}-3-chloro-5-(trifluoromethyl)benzamide]	100	100	90	100	80	90 to 100	100	90 to 100		100			83	100	90 to 100				
CC(=O)Nc1ccc(-n2ncnc2[C@H](C)NC(=O)c2cc(Cl)cc(C(F)(F)F)c2)nc1 [Example I-033]	100	100	100	100	100	90 to 100	100	90 to 100		100	100		100	100	90 to 100		90 to 100	100	90 to 100
CNC(=O)c1ccc(-n2ncnc2[C@H](C)NC(=O)c2cc(Cl)cc(C(F)(F)F)c2)nc1 [Example I-038, 6-(5-{(1S)-1-[3-chloro-5-(trifluoromethyl)benzamido]ethyl}-1H-1,2,4-triazol-1-yl)-N-methylnicotinamide]	100			100	100	90 to 100		90 to 100					100	100	90 to 100	85 to 100	90 to 100	90	
C[C@H](NC(=O)c1cc(Cl)cc(C(F)(F)F)c1)c1ncnn1-c1ccc(OCC(F)(F)F)cn1 [Example I-039, 3-chloro-N-[(1S)-1-{1-[5-(2,2,2-trifluoroethoxy)pyridin-2-yl]-1H-1,2,4-triazol-5-yl}ethyl]-5-(trifluoromethyl)benzamide]		100		100	100		100					100	100	100			90 to 100		
CC[C@H](NC(=O)c1cc(C(F)(F)F)cc(C(F)(F)F)c1)c1ncnn1-c1ccc([N+](=O)[O-])cn1 [Example I-069]					100		100					70		100					
CC[C@H](NC(=O)c1cc(Cl)cc(OC(F)(F)F)c1)c1ncnn1-c1ccc(C#N)cn1 [Example I-070]		80					100					100	100	100					
C[C@H](NC(=O)c1cc(Cl)cc(C(F)(F)F)c1)c1ncnn1-c1ccc(C(=O)NCC(F)(F)F)cn1 [Example I-078]	100	100		100	80		100		90	100	90	100	100	100					
CC[C@H](NC(=O)c1cc(C(F)(F)F)cc(C(F)(F)F)c1)c1ncnn1-c1ccc(NC(=O)C2CC2)cn1 [Example I-094]		100		100						100		100							
